Experiments:
eczema = test: Earlier use of urea on eczema symptoms of type 2 diabetic patient; type: in vivo, human; settings: high blood-sugar level, 16 years ago
psoriasis = test: Comparison of performance of OTCs, zinc oxide and copper lactate on silvery patches L6-L8; type: in vivo, human
Description: As mentioned above, the presence and growth of L6, L7 and L8 lesions gave me an opportunity to compare the performance of my invention against the readily available OTCs. As mentioned earlier, coal tar, sea salts and several combinations of acids are used for treatment of psoriasis and eczema.
From June 1966 to March 1996, The U. S. Department of Interior (DOI) employed me as a research engineer. During the course of my employment with DOI, I had conducted research in more than 100 coal and salt mines. I have a sound knowledge of the properties of coal and salts. The following comments are based on my experimentations and my in-depth knowledge of the physical and chemical properties of these minerals. Furthermore, based on my own knowledge and past experience with the OTCs, I became suspicious of the validity of the claims made by the manufactures of OTCs containing coal tar and sea salts. Therefore, I designed a simple experimental procedure to compare effectiveness of readily available OTCs to treat psoriasis. Experimental procedure: Before each topical application, each of the three silvery patches was washed with warm soapy water and towel dried. Each OTC product was gently massaged onto all three silvery patches three times daily. Topical applications were made in accordance with the drug manufacturer's recommendations. At the end of four hours, physical observations were made. Silvery patches were again washed and dried and medication was applied again. Each product was tested for a period of four days. After completion of one test series and start of another, silvery patches were left alone for a period of four days to avoid carryover affects from one product to another.
Immune suppressing medications such as Elidel and Protopic and all other prescription drugs known to potentially contribute to cancer were excluded from this test series. Prescription phototherapy and systemics having different course of action and generally, they are not recommended for mild cases of psoriasis. Therefore, these medications were beyond the scope of this study.
Therefore, based on prior knowledge, for extension of this study, an ointment containing 40% zinc oxide was selected for testing.
8. Copper Lactate: Even though during this testing phase, no bleeding points were developed, it was still decided to explore the impact of copper lactate alone on psoriatic lesions. Copper lactate for this test series was produced by reacting yogurt in a copper container rather than a brass utensil.

[1] = after ten days of daily applications

Row | Structure (SMILES) | treatment of dry, flaky, cracked, and bleeding symptoms of eczema (eczema) | reduction in psoriatic lesions (psoriasis; after seven days of topical applications) [%] | red thickened skin of the lesion whose silvery patch came off (psoriasis; [1]) | reduction in size of remaining two silvery lesions (psoriasis; [1]) [%] | silvery patch of one of the psoriatic lesions (psoriasis; [1]) | swelling (psoriasis; after the first day of applications, no bleeding points) | pain and swelling (psoriasis; after three days of applications) | silvery scales (psoriasis; after three days of topical application) | silvery patches on the remaining two lesions (psoriasis; further topical applications)
1 | NC(N)=O [Urea] | totally ineffective | – | – | – | – | – | – | – | –
2 | CC(O)C(=O)[O-].CC(O)C(=O)[O-].[Cu+2] (stereo not drawn) [copper lactate] | – | 20 | completely disappeared | 20 | flaked off | significant reduction | completely gone | fell off | have not eliminated

Source: patent US20070031509A1, “Breakthrough to cure psoriasis, psoriatic arthritis and treatment of other unrelated skin disorders, and external rectal and genital itching” (priority 2005, published 2007)
